Entries after “also recorded” stand apart in the source; their conditions may differ.

One assay relates to HAE cells. Description: Growth of human antrum epithelial (HAE) cells (cell count 4 days later). Type of assay: cell-based. As to the method: To measure growth (left panel), HAE cells were plated in 60-mm dishes. Peptide 77-97 (8 μg/ml), or EGF (50 ng/ml), or both were added to the medium and the number of cells counted 4 days later. […] Values are means±SE for 3 cultures. To measure migration (right panel), cells were grown in 60-mm dishes to prepare a confluent monolayer. The medium was aspirated and replaced with fresh medium containing 0.01% calf serum (CS). The monolayer was mechanically wounded by scraping with a razor blade. Detached cells were removed by aspirating medium, and rinsing the remaining cells twice with fresh medium containing 0.01% CS. Fresh medium (5 ml) containing CS (0.01%) and insulin (100 U/L) was added to wounded cultures. Either peptide 77-97 (8 μg/ml), EGF (50 ng/ml), or both were added to duplicate cultures. Migration was assessed at 24, 48 and 72 hr after wounding by measuring the distance (in mm) that cells had migrated from the wound edge using a microscope eyepiece reticle (10-mm long; 0.1-mm markings). Migrating cells at 12 randomly chosen sites along a 0.25-mm stretch of the wound edge were measured at 40-fold magnification. Migration at 2 different sites was measured for each of 2 separate wounds made in each culture. Values are the mean distance cells moved into the denuded area from the edge of 4 different wounds in 2 cultures±SE.
(§1) To characterize the capacity of gastric and intestinal cells to respond to AMP-18, AGS gastric adenocarcinoma cells, HAE human gastric antrum mucosa primary cultures transformed with SV40 large T antigen, rat diploid small intestinal epithelial cells of the IEC-6 (FIG. 15) and IEC-18 lines, NCI N-87 gastric carcinoma cells, and SK-GT5 gastroesophageal adenocarcinoma cells were studied; human WI-38 fibroblasts and HeLa cells served as non-GI control cell lines. Mitogenesis was assayed by performing cell counts 3 to 4 days after exposing cells to the agent of interest, trypsinizing the culture to prepare single cells, and confirming this while counting them in a hemocytometer.

A further assay relates to IEC-18 cells. Description: Wound restitution (migration) of scrape-wounded IEC-18 cell monolayers. Format: cell-based, rat. How it is done: Confluent monolayer cultures were mechanically wounded by scraping with a razor blade, and the distance that cells migrated from the wound edge was measured using a microscope eyepiece reticle.
In a separate set of experiments DSS reduced restitution of scrape-wounded cultures of non-transformed diploid rat intestinal epithelial IEC-18 cells (P<0.001) (FIG. 29, right panel). When DSS was removed by aspirating the medium and the cultures allowed to recover for 24 hr after scrape wounding, cell migration during the next 24 hr was 40% greater in the presence of AMP peptide compared to vehicle (P<0.001).

For a further assay, the system named is WI-38 fibroblasts. Description: Growth of WI-38 fibroblasts (non-GI control). Format: cell-based, human. The settings on record: peptide up to 8 μg/ml. How it is done: as §1
The next assay relates to SK-GT5 cells. Description: Growth of SK-GT5 gastroesophageal adenocarcinoma cells. Format: cell-based. The settings on record: concentration-dependent. As to the method: as §1
The subject of assay [1] is mice with DSS-induced colitis. Description: DSS-induced colitis in mice (blood in stool, body weight). Type of assay: in vivo, C57BL/6 male mice. The settings on record: P<0.01. How it is done:
FIG. 27, Left Panel: Effect of AMP peptide on appearance of blood in the stool of mice with DSS-induced colitis. Mice (n=50) were given 3% dextran sulfate sodium, and stools were assayed daily for the presence of blood. Appearance of bloody diarrhea was delayed in animals treated with AMP peptide (10 mg/kg body weight/day) compared to those given the vehicle (P<0.01). Right panel: Effect of treatment with AMP peptide on body weight of mice with DSS colitis. After animals (n=20) received 3% DSS to drink for 4 days, they were switched to water (day 0 on graph).
To evaluate the therapeutic efficacy of AMP peptide in vivo, colitis of mild to moderate severity was induced in C57BL/6 male mice by giving the animals DSS (3%) dissolved in tap water to drink ad libitum. Evidence of colitis (blood in the stool assayed by hemoccult strips) was found as early as day 1 (FIG. 27, left panel), and in all animals given injections of the vehicle subcutaneously (s.c.) by day 4. AMP peptide was administered s.c. one day before animals were given DSS, and once per day thereafter. Bloody stool was detected in fewer animals given AMP peptide than the vehicle (P<0.01; n=50).
To look for a systemic effect of treatment with AMP peptide during the development of DSS colitis, body weight was measured. During the first 4 days of DSS administration, body weight changed little in peptide- or vehicle-treated mice. Then DSS was discontinued, the animals were given water to drink (day 0; FIG. 27, right panel), and measurements of weight were continued. […] Because DSS treatment appeared to injure barrier function in monolayer cultures of C2 cells, assessed as a decrease in TER (FIG. 22) and reduced occludin in the detergent-insoluble fraction (FIG. 36), a question was whether DSS might adversely affect the content of this TJ protein in vivo. […] Occludin levels in the NP-40-insoluble fraction were assessed by immunoblotting. […]

A further assay relates to Klebsiella pneumoniae. Description: Growth of other bacteria and fungi. Format: cell-based.
The next assay concerns Aspergillus niger. Description: Growth of other bacteria and fungi. Format: cell-based.

Regarding “LDALVKEKKLQGKGPGGPPPK [97–117, peptide 77-97 of the mature protein, same as 97-117 of the human precursor]”, the “proliferation together with EGF” value in the assay with HAE cells (peptide 77-97 8 μg/ml + EGF 50 ng/ml) is recorded as “additive”. Also, in the assay on HAE cells (peptide 77-97 8 μg/ml, EGF 50 ng/ml, 4 days), the “proliferation of HAE cells (in words)” value was “stimulated proliferation”. Besides, the “cell migration greater than vehicle after DSS removal” value in the assay on IEC-18 cells (24 hr recovery after scrape wounding, next 24 hr, P<0.001) is recorded as 40%. In addition, the “migration from the wound edge compared with control” value with IEC-18 cells (each time point, P<0.005) is listed as “migrated further”. Moreover, the “growth stimulation of WI-38 fibroblasts” value in the assay with WI-38 fibroblasts was “does not stimulate growth”; in the assay on WI-38 fibroblasts (listed as AMP peptide), “failure”. Besides, in the assay on SK-GT5 cells, the “growth of SK-GT5 cells” value is recorded as “stimulated”. For the same sequence, the “appearance of blood in the stool (bloody diarrhea) versus vehicle” value in assay [1] (3% DSS, 10 mg/kg body weight/day s.c., listed as AMP peptide, 10 mg/kg/day) is on record as “fewer animals; also recorded: delayed”. For the same sequence, the “body weight loss versus vehicle” value in assay [1] (3 days after switching from 3% DSS to water, 10 mg/kg s.c. daily) is given as “lost less weight”. Also, the “recovery of body weight” value in assay [1] (day 7 after stopping DSS, listed as AMP peptide) is “complete recovery; also recorded: completely recovered”. In addition, the “growth of Klebsiella pneumoniae” value with Klebsiella pneumoniae is on record as “did not alter the growth”. The “growth of Aspergillus niger” value in the assay on Aspergillus niger is on record as “did not alter the growth”.
